Assay results from ChEMBL document CHEMBL1201862, “PubChem BioAssay data set” (2004).
The source made the active and inactive calls.

Experiments:
[1] = Luminescence Cell-Based Dose Retest to Confirm Inhibitors of Cancer Stem Cells. [Related pubchem assays (depositor defined):AID2717, AID2721]; type: functional; settings: Homo sapiens
[2] = toxicity toward cultured mammalian cells – cell-based, plate reader, cherry-pick samples, cytotoxicity control, dose response (AID 504397); type: functional
CAAX prenyl protease 2 = molecular target: T1, CAAX prenyl protease 2 (Saccharomyces cerevisiae S288c, UniProt Q03530); type: biochemical
T1 sequence (Q03530 whole entry): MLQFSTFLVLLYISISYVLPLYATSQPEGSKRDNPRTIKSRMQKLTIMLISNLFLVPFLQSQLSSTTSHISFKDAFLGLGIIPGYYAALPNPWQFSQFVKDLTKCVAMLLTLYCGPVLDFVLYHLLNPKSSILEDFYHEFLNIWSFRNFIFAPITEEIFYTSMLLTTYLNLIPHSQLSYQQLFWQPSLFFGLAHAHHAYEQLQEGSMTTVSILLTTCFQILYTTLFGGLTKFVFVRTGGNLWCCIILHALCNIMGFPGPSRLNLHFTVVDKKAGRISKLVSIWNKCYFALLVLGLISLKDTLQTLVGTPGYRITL

[3] = molecular target: Lysine-specific demethylase 4A (Homo sapiens, UniProt O75164); assay: inhibition of JMJD2A H3K9me3 demethylation – biochemical, DELFIA europium, cherry-picked samples, selectivity assay for GASC-1 inhibitor project, dose response (AID 488840)
[4] = molecular target: Lysine-specific demethylase 4C (Homo sapiens, UniProt Q9H3R0); assay: inhibition of JMJD2C H3K9me3 demethylation – biochemical, DELFIA europium, cherry-picked samples, dose response (AID 488835); type: functional
[5] = molecular target: Voltage-dependent T-type calcium channel subunit alpha-1H (Homo sapiens, UniProt O95180); assay: inhibition of CACNA1H calcium flux – cell-based, SynthLib3 library, HEK293 Cav3.2, fluorescence (AID 493041); type: functional
Cannabinoid receptor 2 [6] = molecular target: T2, Cannabinoid receptor 2 (Homo sapiens, UniProt P34972); assay: SAR analysis of agonists of the Cannabinoid Receptor 2 using an Image-Based Assay. [Related pubchem assays (depositor defined):AID2013, AID2026]; type: functional
[7] = molecular target: T3, G-protein coupled receptor 35 (Homo sapiens, UniProt Q9HC97); assay: SAR analysis of Agonists of the GPR35 Receptor using an Image-Based Assay - Set 2. [Related pubchem assays (depositor defined):AID2013, AID2026]; type: functional
[8] = molecular target: T4, G-protein coupled receptor 55 (Homo sapiens, UniProt Q9Y2T6); assay: blockade of LPI-induced GPR55 arrestin translocation – imaging, U2OS, beta-arrestin-GFP, LPI agonist, set 2, SAR follow-up (AID 2820); type: functional
[9] = molecular target: T4, G-protein coupled receptor 55; assay: inhibition of LPI-stimulated GPR55 beta-arrestin translocation – imaging, U2OS, beta-arrestin-GFP, LPI agonist, primary screen (AID 2013); type: functional;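 note: antagonist potency measured as reduced agonist-driven arrestin aggregation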
Cannabinoid receptor 1 [10] = molecular target: T5, Cannabinoid receptor 1 (Homo sapiens, UniProt P21554); assay: SAR analysis of antagonists of the Cannabinoid Receptor 1 using an Image-Based Assay - Set 2. [Related pubchem assays (depositor defined):AID2013, AID2026]; type: functional
[11] = molecular target: T3, G-protein coupled receptor 35; assay: SAR analysis of Antagonists of the GPR35 Receptor using an Image-Based Assay - Set 3. [Related pubchem assays (depositor defined):AID2013, AID2026]; type: functional
Cannabinoid receptor 1 [12] = molecular target: T5, Cannabinoid receptor 1; assay: SAR analysis of agonists of the Cannabinoid Receptor 1 using an Image-Based Assay - Set 2. [Related pubchem assays (depositor defined):AID2013, AID2026]; type: functional
Cannabinoid receptor 2 [13] = molecular target: T2, Cannabinoid receptor 2; assay: SAR analysis of antagonists of the Cannabinoid Receptor 2 using an Image-Based Assay. [Related pubchem assays (depositor defined):AID2013, AID2026]; type: functional
[14] = molecular target: Tyrosyl-DNA phosphodiesterase 2 (Homo sapiens, UniProt O95551); assay: potency against TDP2 phosphodiesterase activity – biochemical, epi absorbance, IC50, dose response (AID 743297)
[15] = molecular target: T6, RNA-binding protein pos-1 (Caenorhabditis elegans, UniProt G5EF15); assay: disruptors of C. elegans POS-1 RNA interaction – biochemical, fluorescence polarization, dose response (AID 1964);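 note: purified POS-1 fused to maltose binding protein made in E. coli; potency of compounds blocking POS-1 binding to fluorescent RNA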
T6 sequence (G5EF15 whole entry): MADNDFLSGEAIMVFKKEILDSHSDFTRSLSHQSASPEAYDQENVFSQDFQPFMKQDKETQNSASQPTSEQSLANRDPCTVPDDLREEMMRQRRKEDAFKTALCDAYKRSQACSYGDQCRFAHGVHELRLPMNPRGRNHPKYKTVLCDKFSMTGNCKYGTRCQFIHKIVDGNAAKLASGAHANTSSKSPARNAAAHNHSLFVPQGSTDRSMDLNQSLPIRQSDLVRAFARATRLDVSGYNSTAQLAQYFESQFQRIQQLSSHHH

SUMO E1/E2 = SUMO E1/E2 (Homo sapiens, UniProt P63279+Q9UBE0+Q9UBT2); assay: SAR analysis of SUMOylation using HTRF in an in-Vitro dose response assay. [Related pubchem assays (depositor defined):AID2006, AID2011, AID2018, AID2069, AID2658]; type: functional
[16] = molecular target: T7, Sentrin-specific protease 8 (Homo sapiens, UniProt Q96LD8); type: functional
T7 sequence (Q96LD8 whole entry): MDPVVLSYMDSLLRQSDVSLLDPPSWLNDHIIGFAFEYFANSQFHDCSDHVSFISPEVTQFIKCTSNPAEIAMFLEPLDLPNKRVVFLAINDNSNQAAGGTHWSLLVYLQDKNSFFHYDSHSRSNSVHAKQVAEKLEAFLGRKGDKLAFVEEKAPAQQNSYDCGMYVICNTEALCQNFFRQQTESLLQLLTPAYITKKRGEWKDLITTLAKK

[17] = molecular target: T7, Sentrin-specific protease 8; type: functional; remark: listed apart in the source
[18] = molecular target: T8, Zinc finger protein mex-5 (Caenorhabditis elegans, UniProt Q9XUB2); assay: potency of MEX-5 RNA-binding blockers – biochemical, C. elegans, fluorescence polarization, dose response (AID 1960)
T8 sequence (Q9XUB2 whole entry): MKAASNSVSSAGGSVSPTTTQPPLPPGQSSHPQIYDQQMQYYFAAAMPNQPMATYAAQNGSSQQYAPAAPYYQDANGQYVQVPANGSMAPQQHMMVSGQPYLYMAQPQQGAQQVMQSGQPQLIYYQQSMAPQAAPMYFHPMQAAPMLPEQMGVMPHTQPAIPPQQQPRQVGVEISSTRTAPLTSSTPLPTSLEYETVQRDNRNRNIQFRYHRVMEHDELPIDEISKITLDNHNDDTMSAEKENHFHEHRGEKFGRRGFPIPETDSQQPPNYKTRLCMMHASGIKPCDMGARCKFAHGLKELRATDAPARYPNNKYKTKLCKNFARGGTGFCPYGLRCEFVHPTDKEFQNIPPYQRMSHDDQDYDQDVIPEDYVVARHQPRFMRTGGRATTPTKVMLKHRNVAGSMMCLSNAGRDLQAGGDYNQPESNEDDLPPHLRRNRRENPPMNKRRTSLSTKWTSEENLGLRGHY

[19] = PhoP promoter GFP reporter reduction in Typhimurium – purified and synthesized compounds, set 2, PhoP regulon inhibitor project, dose response (AID 2831); type: functional
[20] = Luminescence Cell-Based Dose Confirmation HTS to Identify Inhibitors of 5'UTR Stem-Loop Driven Alpha-Synuclein mRNA Translation in H4 Neuroglioblastoma Cells. [Related pubchem assays: 1827 (Project Summary), 1813 (Primary HTS)]; type: functional
[21] = alpha-synuclein stem-loop luciferase translation blockers – H4 neuroglioma cells, luminescence, confirmation (AID 1988); type: functional, cell-based
[22] = luciferase reporter signal suppression in cells – H4 neuroglioma cells, luminescence, dose response (AID 1990); type: functional, cell-based
[23] = Luminescence Cell-Based Dose HTS Response to Identify Inhibitors of 5'UTR Stem-Loop Driven Prion Protein mRNA Translation in H4-C Neuroglioblastoma Cells. [Related pubchem assays (depositor defined):AID1814, AID1827]; type: functional
[24] = Luminescence Cell-Based Dose Response HTS to Identify Inhibitors of Luciferase Translation or Activity in H4-C Neuroglioblastoma Cells. [Related pubchem assays: 1813 (Primary HTS), 1827 (Project Summary)]; type: functional
[25] = Luminescence Cell-Based Dose Response HTS to Identify Activators of Luciferase Translation or Activity in H4-C Neuroglioblastoma Cells. [Related pubchem assays: 1829 (Project Summary), 1814 (Primary HTS)]; type: functional
[26] = Luminescence Cell-Based Dose Response HTS to Identify Inhibitors of 5'UTR Stem-Loop Driven Prion Protein mRNA Translation in H4 Neuroglioblastoma Cells. [Related pubchem assays: 1827 (Project Summary), 1813 (Primary HTS)]; type: functional
[27] = Luminescence Cell-Based Dose Response HTS to Identify Activators of 5'UTR Stem-Loop Driven Prion Protein mRNA Translation in H4-C Neuroglioblastoma Cells. [Related pubchem assays: 1829 (Project Summary), 1814 (Primary HTS)]; type: functional
[28] = Luminescence Cell-Based Dose Retest to Confirm Activators of 5'UTR Stem-Loop Driven Alpha-Synuclein mRNA Translation in H4 Neuroglioblastoma Cells. [Related pubchem assays (depositor defined):AID1813, AID1829]; type: functional
[29] = molecular target: T9, Alkaline phosphatase, tissue-nonspecific isozyme (Homo sapiens, UniProt P05186); assay: TNAP enzyme inhibition by screening hits, dose response, selectivity assay for mouse IAP inhibitor project, biochemical, human TNAP, uHTS hits (AID 488906); type: functional
T9 sequence (P05186 whole entry): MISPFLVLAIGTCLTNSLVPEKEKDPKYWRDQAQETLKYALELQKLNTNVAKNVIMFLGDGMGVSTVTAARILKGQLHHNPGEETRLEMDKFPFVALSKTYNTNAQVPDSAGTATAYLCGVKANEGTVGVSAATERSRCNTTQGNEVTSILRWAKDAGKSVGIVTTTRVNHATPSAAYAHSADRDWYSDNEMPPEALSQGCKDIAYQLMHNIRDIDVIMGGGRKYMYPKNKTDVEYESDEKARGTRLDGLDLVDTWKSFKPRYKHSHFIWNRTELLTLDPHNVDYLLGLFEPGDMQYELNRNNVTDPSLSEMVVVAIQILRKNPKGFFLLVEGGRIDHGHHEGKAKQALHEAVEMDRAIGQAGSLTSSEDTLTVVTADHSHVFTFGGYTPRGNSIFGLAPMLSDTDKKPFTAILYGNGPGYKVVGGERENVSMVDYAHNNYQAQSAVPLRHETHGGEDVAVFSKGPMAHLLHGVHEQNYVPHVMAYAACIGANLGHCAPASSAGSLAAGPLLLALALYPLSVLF

SUMO-activating enzyme [30] = molecular target: T10, SUMO-activating enzyme (Homo sapiens, UniProt Q9UBT2); assay: blockers of SAE1/SAE2–UBC9 SUMO transfer – biochemical, HTRF, uHTS, primary screen (AID 2006); type: protein-complex assay
[31] = molecular target: Intestinal-type alkaline phosphatase (Mus musculus, UniProt P24822); assay: PubChem AID 488785; type: functional
SUMO-activating enzyme [32] = molecular target: T10, SUMO-activating enzyme; assay: blockers of UBC9-mediated SUMO conjugation – biochemical, AlphaScreen, SUMOylation inhibitor project, confirmation (AID 2018); type: functional
[33] = molecular target: Intestinal-type alkaline phosphatase (Homo sapiens, UniProt P09923); assay: inhibition of human intestinal alkaline phosphatase – biochemical, dose response (AID 488876); type: functional
Large T antigen = Large T antigen (Simian virus 40, UniProt P03070); type: functional, Betapolyomavirus macacae;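 note: Confirmatory-stage PubChem screen for compounds that inhibit SV40 T antigen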
[34] = molecular target: Kappa-type opioid receptor (Homo sapiens, UniProt P41145); assay: SAR analysis of small molecule agonists of the kappa opioid receptor via a luminescent beta-arrestin assay - Set 3. [Related pubchem assays (depositor defined):AID1777, AID1785, AID1786, AID1966, AID2133, AID2136, AID2284, AID2500]; type: functional

T5 sequence (P21554 whole entry): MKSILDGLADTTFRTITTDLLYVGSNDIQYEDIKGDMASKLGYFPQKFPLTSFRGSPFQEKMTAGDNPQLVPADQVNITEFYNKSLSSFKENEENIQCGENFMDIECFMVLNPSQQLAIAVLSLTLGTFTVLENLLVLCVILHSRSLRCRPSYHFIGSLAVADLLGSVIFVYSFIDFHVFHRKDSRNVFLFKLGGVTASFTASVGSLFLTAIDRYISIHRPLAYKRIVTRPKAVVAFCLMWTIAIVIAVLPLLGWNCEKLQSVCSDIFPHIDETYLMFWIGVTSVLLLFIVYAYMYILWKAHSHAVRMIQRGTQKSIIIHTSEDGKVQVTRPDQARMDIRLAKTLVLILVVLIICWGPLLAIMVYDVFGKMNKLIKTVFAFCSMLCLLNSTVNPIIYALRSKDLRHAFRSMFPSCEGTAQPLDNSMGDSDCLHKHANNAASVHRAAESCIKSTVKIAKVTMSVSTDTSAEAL
T4 sequence (Q9Y2T6 whole entry): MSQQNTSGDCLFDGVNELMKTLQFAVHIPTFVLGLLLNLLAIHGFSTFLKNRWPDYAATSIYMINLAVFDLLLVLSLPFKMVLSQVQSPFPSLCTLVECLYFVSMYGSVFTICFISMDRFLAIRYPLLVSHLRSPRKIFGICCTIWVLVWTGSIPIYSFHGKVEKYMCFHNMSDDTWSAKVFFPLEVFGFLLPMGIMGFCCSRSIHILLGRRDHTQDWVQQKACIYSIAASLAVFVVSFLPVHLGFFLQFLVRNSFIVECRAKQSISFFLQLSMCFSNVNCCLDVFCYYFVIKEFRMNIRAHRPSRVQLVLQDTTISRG
T3 sequence (Q9HC97 whole entry): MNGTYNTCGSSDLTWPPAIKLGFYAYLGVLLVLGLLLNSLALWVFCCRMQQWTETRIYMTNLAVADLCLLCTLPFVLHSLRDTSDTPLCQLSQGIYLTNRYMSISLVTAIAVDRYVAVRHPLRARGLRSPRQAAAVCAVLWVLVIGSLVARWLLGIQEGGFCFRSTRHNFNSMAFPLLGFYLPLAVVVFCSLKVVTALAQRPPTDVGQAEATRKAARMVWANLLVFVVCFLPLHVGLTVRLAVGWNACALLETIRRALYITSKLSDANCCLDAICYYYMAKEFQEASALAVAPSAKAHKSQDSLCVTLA
T10 sequence (Q9UBE0 whole entry): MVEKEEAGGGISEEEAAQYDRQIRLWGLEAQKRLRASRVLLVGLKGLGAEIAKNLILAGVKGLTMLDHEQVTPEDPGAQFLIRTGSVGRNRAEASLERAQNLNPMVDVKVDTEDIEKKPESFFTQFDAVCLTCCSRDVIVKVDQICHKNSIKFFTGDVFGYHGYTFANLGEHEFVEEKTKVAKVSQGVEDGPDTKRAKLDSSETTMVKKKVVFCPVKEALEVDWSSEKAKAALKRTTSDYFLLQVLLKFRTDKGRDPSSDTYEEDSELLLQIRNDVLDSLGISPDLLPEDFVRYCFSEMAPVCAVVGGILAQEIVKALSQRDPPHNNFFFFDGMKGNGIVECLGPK
T10 sequence (Q9UBT2 whole entry): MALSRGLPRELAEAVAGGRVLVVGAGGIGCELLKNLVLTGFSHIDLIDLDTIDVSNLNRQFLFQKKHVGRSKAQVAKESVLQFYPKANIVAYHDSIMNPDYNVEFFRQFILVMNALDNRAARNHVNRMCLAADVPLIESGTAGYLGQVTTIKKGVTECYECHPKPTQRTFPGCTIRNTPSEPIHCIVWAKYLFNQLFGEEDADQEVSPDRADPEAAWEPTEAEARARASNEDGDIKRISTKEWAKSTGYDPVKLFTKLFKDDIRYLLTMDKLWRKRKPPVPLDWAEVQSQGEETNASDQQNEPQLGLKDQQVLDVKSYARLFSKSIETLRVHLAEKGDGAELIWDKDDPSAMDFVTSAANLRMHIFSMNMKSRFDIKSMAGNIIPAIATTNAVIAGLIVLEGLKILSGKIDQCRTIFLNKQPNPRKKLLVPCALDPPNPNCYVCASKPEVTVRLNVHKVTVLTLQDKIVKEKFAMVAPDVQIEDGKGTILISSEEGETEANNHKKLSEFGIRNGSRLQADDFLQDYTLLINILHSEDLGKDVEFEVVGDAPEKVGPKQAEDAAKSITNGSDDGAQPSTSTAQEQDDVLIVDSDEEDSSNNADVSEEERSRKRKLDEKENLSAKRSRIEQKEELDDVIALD
T2 sequence (P34972 whole entry): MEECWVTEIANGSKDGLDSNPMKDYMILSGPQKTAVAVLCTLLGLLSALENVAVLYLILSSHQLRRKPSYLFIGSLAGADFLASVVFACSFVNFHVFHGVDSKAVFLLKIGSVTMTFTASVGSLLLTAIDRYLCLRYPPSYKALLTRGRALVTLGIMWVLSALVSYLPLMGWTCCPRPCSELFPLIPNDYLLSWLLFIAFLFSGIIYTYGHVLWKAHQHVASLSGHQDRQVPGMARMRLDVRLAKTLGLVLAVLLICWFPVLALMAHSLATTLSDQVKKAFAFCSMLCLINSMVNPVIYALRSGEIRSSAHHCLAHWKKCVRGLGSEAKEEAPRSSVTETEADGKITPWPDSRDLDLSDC
Sequence of Lysine-specific demethylase 4C (Q9H3R0 whole entry): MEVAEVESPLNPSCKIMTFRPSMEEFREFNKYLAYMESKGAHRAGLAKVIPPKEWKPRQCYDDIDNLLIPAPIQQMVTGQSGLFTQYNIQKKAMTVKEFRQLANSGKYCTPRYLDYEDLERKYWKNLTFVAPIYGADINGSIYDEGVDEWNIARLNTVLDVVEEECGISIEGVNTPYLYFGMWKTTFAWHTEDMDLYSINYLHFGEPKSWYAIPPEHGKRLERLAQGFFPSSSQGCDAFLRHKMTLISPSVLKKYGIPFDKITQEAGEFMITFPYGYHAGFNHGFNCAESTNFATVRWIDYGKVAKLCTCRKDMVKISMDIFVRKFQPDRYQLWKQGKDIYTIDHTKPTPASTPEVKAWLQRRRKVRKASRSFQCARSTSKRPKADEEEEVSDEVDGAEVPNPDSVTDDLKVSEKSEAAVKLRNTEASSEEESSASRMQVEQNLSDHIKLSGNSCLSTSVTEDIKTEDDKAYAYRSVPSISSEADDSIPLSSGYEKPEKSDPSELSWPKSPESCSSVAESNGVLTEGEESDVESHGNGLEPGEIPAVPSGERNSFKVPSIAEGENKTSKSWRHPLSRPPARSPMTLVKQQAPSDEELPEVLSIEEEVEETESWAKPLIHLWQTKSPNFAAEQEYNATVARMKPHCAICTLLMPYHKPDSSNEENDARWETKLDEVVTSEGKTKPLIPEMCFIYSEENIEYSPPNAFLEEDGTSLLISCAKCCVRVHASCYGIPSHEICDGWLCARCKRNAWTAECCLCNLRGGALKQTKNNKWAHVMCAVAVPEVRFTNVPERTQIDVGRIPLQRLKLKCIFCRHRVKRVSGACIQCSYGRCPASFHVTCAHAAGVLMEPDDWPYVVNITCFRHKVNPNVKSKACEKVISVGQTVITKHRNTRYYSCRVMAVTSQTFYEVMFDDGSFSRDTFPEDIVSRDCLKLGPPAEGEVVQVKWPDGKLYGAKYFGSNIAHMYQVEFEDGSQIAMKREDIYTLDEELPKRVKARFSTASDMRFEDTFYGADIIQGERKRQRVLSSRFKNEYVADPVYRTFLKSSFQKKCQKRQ
Sequence of Lysine-specific demethylase 4A (O75164 whole entry): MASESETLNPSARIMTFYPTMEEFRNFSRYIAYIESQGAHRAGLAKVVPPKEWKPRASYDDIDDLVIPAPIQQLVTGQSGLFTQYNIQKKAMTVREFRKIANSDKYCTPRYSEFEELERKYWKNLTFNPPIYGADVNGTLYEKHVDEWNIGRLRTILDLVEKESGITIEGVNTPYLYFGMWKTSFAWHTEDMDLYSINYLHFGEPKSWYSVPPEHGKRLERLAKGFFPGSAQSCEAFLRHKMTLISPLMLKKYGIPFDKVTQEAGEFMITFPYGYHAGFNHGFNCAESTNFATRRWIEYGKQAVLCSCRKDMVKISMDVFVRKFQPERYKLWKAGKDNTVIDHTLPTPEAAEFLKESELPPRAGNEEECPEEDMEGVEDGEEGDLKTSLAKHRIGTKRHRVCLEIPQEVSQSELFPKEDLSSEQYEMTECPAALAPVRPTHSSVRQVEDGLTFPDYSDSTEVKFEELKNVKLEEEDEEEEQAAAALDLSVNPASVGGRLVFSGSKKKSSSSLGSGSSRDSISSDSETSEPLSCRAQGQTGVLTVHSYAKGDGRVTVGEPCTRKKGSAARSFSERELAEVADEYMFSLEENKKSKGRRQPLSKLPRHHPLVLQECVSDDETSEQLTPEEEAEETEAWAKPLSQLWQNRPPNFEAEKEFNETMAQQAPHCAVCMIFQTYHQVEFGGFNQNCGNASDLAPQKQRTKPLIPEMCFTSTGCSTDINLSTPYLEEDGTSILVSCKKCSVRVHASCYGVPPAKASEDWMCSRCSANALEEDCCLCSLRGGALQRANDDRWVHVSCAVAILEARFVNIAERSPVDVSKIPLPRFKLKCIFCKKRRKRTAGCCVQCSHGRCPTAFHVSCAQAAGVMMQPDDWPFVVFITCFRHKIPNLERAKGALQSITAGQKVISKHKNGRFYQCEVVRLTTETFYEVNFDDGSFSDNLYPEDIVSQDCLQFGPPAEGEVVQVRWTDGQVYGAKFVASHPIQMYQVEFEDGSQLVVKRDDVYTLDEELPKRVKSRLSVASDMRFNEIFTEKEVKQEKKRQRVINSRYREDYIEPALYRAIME
Sequence of Tyrosyl-DNA phosphodiesterase 2 (O95551 whole entry, the tested form may be a part): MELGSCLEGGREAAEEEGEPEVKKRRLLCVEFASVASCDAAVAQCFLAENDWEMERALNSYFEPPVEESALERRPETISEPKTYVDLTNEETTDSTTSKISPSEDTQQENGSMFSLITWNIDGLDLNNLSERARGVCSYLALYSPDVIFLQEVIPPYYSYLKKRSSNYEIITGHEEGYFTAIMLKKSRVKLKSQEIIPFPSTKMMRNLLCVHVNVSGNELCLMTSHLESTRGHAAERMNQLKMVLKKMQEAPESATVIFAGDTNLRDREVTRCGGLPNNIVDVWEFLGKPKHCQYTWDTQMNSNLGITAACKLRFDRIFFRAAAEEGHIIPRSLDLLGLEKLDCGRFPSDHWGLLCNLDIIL

Clc1cccc(CN2CCc3c([nH]c4ccccc34)C2)c1Cl
AC50 [1]: 4.83 µM (active) | AC50 [2]: 117 µM (active) | AC50 (CAAX prenyl protease 2): 3.27 µM (active)

Cc1ccc(C)c(Cn2c(C(=O)OC(C)C)cc3c2ccn3C)c1
AC50 [3]: 21.9 µM (active) | AC50 [4]: 11.6 µM (active)

O=C(COc1ccc(F)c(Cl)c1)N[C@H]1CCCN(CC2CCCC2)C1
EC50 [5]: 10 µM (active)

Cc1cccc2c1NC(=O)C2(c1ccc(O)cc1)c1ccc(O)cc1
EC50 (Cannabinoid receptor 2 [6]): > 32 µM (inactive) | EC50 [7]: > 32 µM (inactive) | IC50 [8]: 0.125 µM (active) | IC50 [9]: 2.53 µM (active) | IC50 (Cannabinoid receptor 1 [10]): 31.3 µM (inactive) | IC50 [11]: 7.66 µM (active) | EC50 (Cannabinoid receptor 1 [12]): > 32 µM (inactive) | IC50 (Cannabinoid receptor 2 [13]): > 32 µM (inactive)

Cc1[nH][nH]c(=O)c1C(c1ccc(-c2cccc(C(=O)O)c2)o1)c1c(C)[nH][nH]c1=O
IC50 [14]: > 128 µM (inactive) | EC50 [15]: 18.1 µM (active) | IC50 (SUMO E1/E2): 84.1 µM (active) | IC50 [16]: 17.8 µM (active) | IC50 [17]: 11.9 µM (active) | EC50 [18]: 5.56 µM (active)

S=C(NCc1ccc(Cl)cc1)Nc1ccc(Cl)cc1
IC50 [19]: > 150 µM (active)

COc1ccc(/C=N/NC(=O)c2cc3c(OC)ccc(OC)c3[nH]2)cc1O
EC50 [20]: 2.9 µM (active) | EC50 [21]: 0.291 µM (active) | EC50 [22]: 9.89 µM (active) | EC50 [23]: 1.75 µM (active) | EC50 [24]: 0.747 µM (active) | EC50 [25]: 2.51 µM (inconclusive) | EC50 [26]: 13.3 µM (active) | EC50 [27]: 0.765 µM (inconclusive) | EC50 [28]: 29.5 µM (inconclusive)

NC1=NC(=O)/C(=C\c2ccco2)S1
IC50 [29]: > 100 µM (inactive) | IC50 (SUMO-activating enzyme [30]): 21.7 µM (active) | IC50 [31]: 4.59 µM (active) | IC50 (SUMO-activating enzyme [32]): 2.89 µM (active) | IC50 [33]: 19.8 µM (active) | IC50 (Large T antigen): 67.2 µM (active)

FC(F)(F)c1cc(CSc2nnc(-c3ccccn3)n2Cc2cccnc2)ccc1Cl
EC50 [34]: 0.501 µM (active)
